Test results from ChEMBL document CHEMBL3045912, “Prediction of fungicidal activities of rice blast disease based on least-squares support vector machines and project pursuit regression” (2008).

System: Pyricularia grisea
Experiment: Fungicidal activity against Magnaporthe grisea in rice seedlings assessed as area of infection on leaves treated 24 hr prior to spore inoculation measured 5 days after the fungal challenge
Format: functional

| Structure (SMILES) | log(%) |
| --- | --- |
| CCc1ccc(NC(=O)Cc2cs/c(=N\c3ccc(Br)cc3F)n2C)cc1 | 2 |
| CC(C)Oc1ccc(/N=c2/scc(CC(=O)Nc3ccc(C(F)F)cc3)n2C)cc1 | 1.7 |
| Cn1c(CC(=O)Nc2ccc([N+](=O)[O-])cc2)cs/c1=N/c1ccc(F)cc1 | 0.9 |
| COc1ccccc1/N=c1\scc(CC(=O)Nc2ccc(OC(F)(F)F)cc2)n1C | 0.7 |
| Cn1c(CC(=O)Nc2ccc([N+](=O)[O-])cc2)cs/c1=N/c1ccc(C#N)cc1 | 0.7 |
| Cn1c(CC(=O)Nc2ccc(Cl)cc2)cs/c1=N/c1ccc(-c2ccccc2)cc1 | 1.98 |
| COc1ccc(NC(=O)Cc2cs/c(=N/c3ccc([N+](=O)[O-])cc3)n2C)cc1 | 2 |
| COc1ccc(/N=c2\scc(CC(=O)Nc3ccc(C(F)F)cc3)n2C)cc1 | 1.4 |
| COc1ccc(NC(=O)Cc2cs/c(=N\c3ccc(Cl)c(C(F)(F)F)c3)n2C)cc1 | 2 |
| Cn1c(CC(=O)Nc2ccc(OC(F)(F)F)cc2)cs/c1=N\c1ccc(F)cc1 | 0.9 |
| Cn1c(CC(=O)Nc2ccc(Oc3ccccc3)cc2)cs/c1=N/c1ccc(Oc2ccccc2)cc1 | 1.4 |
| CCCCOc1ccc(NC(=O)Cc2cs/c(=N\c3cccc(F)c3)n2C)cc1 | 1 |
| COc1ccc(/N=c2/scc(CC(=O)Nc3ccc(OC(F)(F)F)cc3)n2C)cc1 | 1.4 |
| CCc1ccc(NC(=O)Cc2cs/c(=N/c3ccc(CC#N)cc3)n2C)cc1 | 2 |
| CCOc1ccc(NC(=O)Cc2cs/c(=N\c3ccc(F)cc3F)n2C)cc1 | 1.9 |
| CCCCc1ccc(NC(=O)Cc2cs/c(=N\c3ccc(F)c(Cl)c3)n2C)cc1 | 1.3 |

| Structure (SMILES) | log(%) |
| --- | --- |
| Cn1c(CC(=O)Nc2ccc(OC(F)(F)F)cc2)cs/c1=N\c1cccc(Br)c1 | 1.7 |
| COc1ccc(NC(=O)Cc2cs/c(=N\c3ccccc3C(C)C)n2C)cc1 | 1.9 |
| CCCCOc1ccc(NC(=O)Cc2cs/c(=N/c3ccc(C(F)(F)F)cc3)n2C)cc1 | 1 |
| CCc1ccc(NC(=O)Cc2cs/c(=N/c3ccc(Cl)cc3)n2C)cc1 | 2 |
| COc1ccc(NC(=O)Cc2cs/c(=N\c3cccc(C(F)(F)F)c3)n2C)cc1 | 2 |
| Cn1c(CC(=O)Nc2ccc(Br)cc2)cs/c1=N\c1cccc(F)c1 | 1.9 |
| CCCCCCc1ccc(/N=c2/scc(CC(=O)Nc3ccc(CC)cc3)n2C)cc1 | 2 |
| CCc1ccc(NC(=O)Cc2cs/c(=N\c3ccc(OC)cc3C)n2C)cc1 | 2 |
| Cn1c(CC(=O)Nc2ccc(Oc3ccccc3)cc2)cs/c1=N\c1cccc(Br)c1 | 0.9 |
| CCc1ccc(NC(=O)Cc2cs/c(=N/c3ccc([N+](=O)[O-])cc3OC)n2C)cc1 | 1.81 |
| CC(C)c1ccc(NC(=O)Cc2cs/c(=N/c3ccc(C(F)(F)F)cc3)n2C)cc1 | 1.8 |
| Cn1c(CC(=O)Nc2ccc(OC(F)(F)F)cc2)cs/c1=N\c1cccc(C(F)(F)F)c1 | 1.7 |
| CCc1ccc(NC(=O)Cc2cs/c(=N\c3ccc(C)cc3Cl)n2C)cc1 | 2 |
| CCCCc1ccc(NC(=O)Cc2cs/c(=N\c3cccc(F)c3)n2C)cc1 | 1 |
| Cn1c(CC(=O)Nc2ccc(C(F)F)cc2)cs/c1=N\c1ccc(Br)cc1 | 1.4 |
| CCc1ccc(NC(=O)Cc2cs/c(=N/c3ccc(C(C)=O)cc3)n2C)cc1 | 2 |
